Laboratory results published in ChEMBL document CHEMBL4715762, “Discovery of anabaenopeptin 679 from freshwater algal bloom material: Insights into the structure-activity relationship of anabaenopeptin protease inhibitors” (Bioorg Med Chem Lett, 2016).
Active and inactive are the calls of the source. The rule behind the calls is not given here. Starred links: 1 amine or outer side, 2 acyl side, 3 side chain; linkers in the order of their positions; H or OH if unused. Positions of bridges follow the written chain, without caps; N, C: chain ends. Non-standard residues stand in square brackets, D forms with d. Residues, ends and D or L forms follow the SMILES beside them. NMehTyr = CN[C@@H](CCc1ccc(O)cc1)C(=O)O; X1 = NC(=O)N[C@H](CCCCN[*:1])C(=O)[*:2]; hTyr = N[C@@H](CCc1ccc(O)cc1)C(=O)O; NMeA = CN[C@@H](C)C(=O)O; CO = O=C([*:1])[*:2]

Key:
Carboxypeptidase A1 [1] = biological target: T1, Carboxypeptidase A1 (Homo sapiens, UniProt P15085); experiment: Inhibition of carboxypeptidase A (unknown origin) assessed as reduction in degradation of N-(4-methoxyphenylazoformyl)-Phe-OH using N-(4-methoxyphenylazoformyl)-Phe-OH as substrate
T1 sequence (P15085 whole entry): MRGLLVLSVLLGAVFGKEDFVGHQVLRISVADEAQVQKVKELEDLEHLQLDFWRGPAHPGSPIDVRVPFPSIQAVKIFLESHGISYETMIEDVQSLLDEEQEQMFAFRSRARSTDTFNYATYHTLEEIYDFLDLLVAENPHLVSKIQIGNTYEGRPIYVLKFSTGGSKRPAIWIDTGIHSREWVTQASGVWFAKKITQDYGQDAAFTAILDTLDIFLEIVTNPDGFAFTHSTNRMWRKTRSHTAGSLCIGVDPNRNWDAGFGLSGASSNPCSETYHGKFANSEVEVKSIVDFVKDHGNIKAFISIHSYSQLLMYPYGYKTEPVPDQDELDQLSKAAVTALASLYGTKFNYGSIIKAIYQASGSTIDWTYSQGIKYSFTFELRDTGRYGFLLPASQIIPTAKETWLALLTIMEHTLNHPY

[2] = biological target: T2, Carboxypeptidase A1 (Homo sapiens) (UniProt P15085); experiment: Inhibition of carboxypeptidase A (unknown origin) assessed as reduction in degradation of N-(4-methoxyphenylazoformyl)-Phe-OH at > 10 uM using N-(4-methoxyphenylazoformyl)-Phe-OH as substrate; conditions: dose microM >10
T2 sequence (whole entry): T1 sequence (P15085 whole entry)

Carboxypeptidase A1 [3] = biological target: T1, Carboxypeptidase A1; experiment: Inhibition of carboxypeptidase A (unknown origin)
Carboxypeptidase A1 [4] = biological target: T1, Carboxypeptidase A1; experiment: Inhibition of carboxypeptidase A (unknown origin) assessed as reduction in hydrolysis of hippuryl-L-phenylalanine using hippuryl-L-phenylalanine as substrate
Carboxypeptidase A1 [5] = biological target: T3, Carboxypeptidase A1 (Bos taurus, UniProt P00730); experiment: Inhibition of carboxypeptidase A in bovine pancreas assessed as reduction in hydrolysis of hippuryl-L-phenylalanine using hippuryl-L-phenylalanine as substrate measured after 2 hrs; type: tissue-based
T3 sequence (P00730 whole entry): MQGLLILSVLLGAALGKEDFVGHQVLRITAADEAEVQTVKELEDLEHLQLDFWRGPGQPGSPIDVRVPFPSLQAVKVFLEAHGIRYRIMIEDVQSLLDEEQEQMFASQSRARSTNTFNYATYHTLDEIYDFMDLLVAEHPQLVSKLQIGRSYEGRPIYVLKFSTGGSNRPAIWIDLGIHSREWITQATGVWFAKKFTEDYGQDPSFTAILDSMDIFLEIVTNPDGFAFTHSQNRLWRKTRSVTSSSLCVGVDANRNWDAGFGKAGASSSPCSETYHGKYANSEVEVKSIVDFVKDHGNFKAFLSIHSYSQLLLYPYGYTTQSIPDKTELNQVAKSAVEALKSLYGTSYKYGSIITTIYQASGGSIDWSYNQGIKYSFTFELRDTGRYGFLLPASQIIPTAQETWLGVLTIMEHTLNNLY

Compound	IC50 (Carboxypeptidase A1 [1]) [µM]	other results
CC(C)[C@@H]1NC(=O)[C@H](NC(N)=O)CCCCNC(=O)[C@H](Cc2ccccc2)NC(=O)[C@H](C)N(C)C(=O)[C@H](CCc2ccc(O)cc2)NC1=O (cyclo(F[X1]V[hTyr][NMeA]))	6.74	–
CC[C@H](C)[C@@H]1NC(=O)[C@H](CCc2ccc(O)cc2)N(C)C(=O)[C@H](CCc2ccc(O)cc2)NC(=O)[C@H](C(C)C)NC(=O)[C@H](NC(=O)N[C@@H](CCCNC(=N)N)C(=O)O)CCCCNC1=O [ANABAENOPEPTIN 908] ({Arg-CO}-[dK]V[hTyr][NMehTyr]I; lactam 1-C)	> 11	inhibition [2]: Active; IC50 (Carboxypeptidase A1 [3]): > 22 µM
CC(C)[C@@H]1NC(=O)[C@H](NC(=O)N[C@@H](CCCNC(=N)N)C(=O)O)CCCCNC(=O)[C@H](Cc2ccccc2)NC(=O)[C@H](C)N(C)C(=O)[C@H](CCc2ccc(O)cc2)NC1=O [ANABAENOPEPTIN B] ({Arg-CO}-[dK]V[hTyr][NMeA]F; lactam 1-C)	> 24	–
CC[C@H](C)[C@@H]1NC(=O)[C@H](NC(=O)N[C@@H](CCCNC(=N)N)C(=O)O)CCCCNC(=O)[C@H](Cc2ccccc2)NC(=O)[C@H](C)N(C)C(=O)[C@H](CCc2ccc(O)cc2)NC1=O [ANABAENOPEPTIN F] ({Arg-CO}-[dK]I[hTyr][NMeA]F; lactam 1-C)	> 24	–
CC[C@H](C)[C@@H]1NC(=O)[C@H](NC(=O)N[C@@H](Cc2ccc(O)cc2)C(=O)O)CCCCNC(=O)[C@H]([C@@H](C)CC)NC(=O)[C@H](CCc2ccc(O)cc2)N(C)C(=O)[C@H](CCc2ccc(O)cc2)NC1=O [ANABAENOPEPTIN G] ({Tyr-CO}-[dK]I[hTyr][NMehTyr]I; lactam 1-C)	–	IC50 (Carboxypeptidase A1 [4]): 2 nM
CC[C@H](C)[C@@H]1NC(=O)[C@H](NC(=O)N[C@@H](CCCNC(=N)N)C(=O)O)CCCCNC(=O)[C@H]([C@@H](C)CC)NC(=O)[C@H](CCc2ccc(O)cc2)N(C)C(=O)[C@H](CCc2ccc(O)cc2)NC1=O [ANABAENOPEPTIN H] ({Arg-CO}-[dK]I[hTyr][NMehTyr]I; lactam 1-C)	10.2	–
CC[C@H](C)[C@H](NC(=O)N[C@@H]1CCCCNC(=O)[C@H]([C@@H](C)CC)NC(=O)[C@H](CCc2ccc(O)cc2)N(C)C(=O)[C@H](CCc2ccc(O)cc2)NC(=O)[C@H](C(C)C)NC1=O)C(=O)O [ANABAENOPEPTIN T] ({Ile-CO}-[dK]V[hTyr][NMehTyr]I; lactam 1-C)	–	IC50 (Carboxypeptidase A1 [5]): 2300 nM
